Source: ChEMBL document CHEMBL1136155, “Search compounds with antimicrobial activity by applying molecular topology to selected quinolones” (Bioorg Med Chem Lett, 2003)
Active and inactive are the calls of the source. No cut-off for these calls is given here.

Columns and labels:
Enterococcus faecalis [1] = assay: Antimicrobial activity against Enterococcus faecalis;IA is Inactive; assay type: functional, organism-based
Escherichia coli = assay: Antimicrobial activity against Escherichia coli;IA is Inactive; assay type: functional, organism-based
Pseudomonas aeruginosa = assay: Antimicrobial activity against Pseudomonas aeruginosa 108;IA is Inactive; assay type: functional, organism-based
Proteus mirabilis [2] = assay: The compound has antimicrobial activity against Proteus mirabilis; Active; assay type: functional, organism-based
Staphylococcus aureus [3] = assay: Antimicrobial activity against Staphylococcus aureus;IA is Inactive; assay type: functional, organism-based
Proteus mirabilis [4] = assay: Antimicrobial activity against Proteus mirabilis;IA is Inactive; assay type: functional, organism-based
Klebsiella aerogenes = assay: Activity against Enterobacter aerogenes; assay type: functional
in vivo = settings: eutheria
Staphylococcus aureus [5] = assay: The compound has antimicrobial activity against Staphylococcus aureus; Active; assay type: functional, organism-based
Enterococcus faecalis [6] = assay: The compound has antimicrobial activity against Enterococcus faecalis; Active; assay type: functional, organism-based

Row | Structure (SMILES) | CMI (Klebsiella aerogenes) [mg/L] | bioavailability (in vivo) [%] | also measured
1 | CC1=CC(=C(c2cc(C)c(O)c(CN(CC(=O)O)CC(=O)O)c2)c2ccccc2S(=O)(=O)O)C=C(CN(CC(=O)O)CC(=O)O)C1=O | – | – | Activity (Enterococcus faecalis [1]): inactive; Activity (Escherichia coli): inactive; Activity (Pseudomonas aeruginosa): inactive; Activity (Proteus mirabilis [2]): Active; Activity (Staphylococcus aureus [3]): inactive
2 | Nc1ccc(C(=O)Nc2ccc3c(O)c(/N=N/c4ccc(C(=O)Nc5ccc(/N=N/c6ccc7cc(S(=O)(=O)O)cc(S(=O)(=O)O)c7c6)c(O)c5)cc4)c(S(=O)(=O)O)cc3c2)cc1 | – | – | Activity (Enterococcus faecalis [1]): inactive; Activity (Escherichia coli): inactive; Activity (Pseudomonas aeruginosa): inactive; Activity (Proteus mirabilis [4]): inactive; Activity (Staphylococcus aureus [3]): inactive
3 | OCC(O)C(OC1CO1)OC1CO1 (stereo not given) | – | – | Activity (Enterococcus faecalis [1]): inactive; Activity (Escherichia coli): inactive; Activity (Pseudomonas aeruginosa): inactive; Activity (Proteus mirabilis [4]): inactive; Activity (Staphylococcus aureus [3]): inactive
4 | CNn1cc(C(=O)O)c(=O)c2cc(F)c(N3CCN(C)CC3)cc21 [AMIFLOXACIN] | 0.11 | – | –
5 | O=C(O)c1cn(C2CC2)c2cc(N3CCNCC3)c(F)cc2c1=O [CIPROFLOXACIN] | 0.03 | – | –
6 | CN1CCN(c2cc3c(cc2F)c(=O)c(C(=O)O)cn3-c2ccc(F)cc2)CC1 [DIFLOXACIN] | 0.19 | – | –
7 | CCn1cc(C(=O)O)c(=O)c2cc(F)c(N3CCNCC3)nc21 [ENOXACIN] | 0.16 | 87.4 | –
8 | CCn1cc(C(=O)O)c(=O)c2cc(F)c(N3CCNC(C)C3)c(F)c21 (stereo not given) [LOMEFLOXACIN] | 0.16 | 98 | –
9 | CCn1cc(C(=O)O)c(=O)c2ccc(C)nc21 [NALIDIXIC ACID] | 3 | 60 | Activity (Staphylococcus aureus [5]): Active; Activity (Escherichia coli): inactive; Activity (Pseudomonas aeruginosa): inactive; Activity (Proteus mirabilis [2]): Active; Activity (Enterococcus faecalis [6]): Active
10 | CCn1cc(C(=O)O)c(=O)c2cc(F)c(N3CCNCC3)cc21 [NORFLOXACIN] | 0.1 | 63 | –
11 | CC1COc2c(N3CCN(C)CC3)c(F)cc3c(=O)c(C(=O)O)cn1c23 (stereo not given) [OFLOXACIN] | 0.12 | 94.4 | –
12 | CCn1cc(C(=O)O)c(=O)c2cc3c(cc21)OCO3 [OXOLINIC ACID] | 0.5 | – | –
13 | CCn1cc(C(=O)O)c(=O)c2cc(F)c(N3CCN(C)CC3)cc21 [PEFLOXACIN] | 0.12 | 91.2 | –
14 | CCn1cc(C(=O)O)c(=O)c2cnc(N3CCNCC3)nc21 [PIPEMIDIC ACID] | 2 | – | –
15 | CC1CN(c2cc3c(cc2F)c(=O)c(C(=O)O)cn3-c2ccc(F)cc2F)CCN1 (stereo not given) [TEMAFLOXACIN] | 0.16 | 90 | –
16 | NC1CCN(c2nc3c(cc2F)c(=O)c(C(=O)O)cn3-c2ccccc2F)C1 (stereo not given) [TUSOFLOXACINE] | 0.05 | – | –
